Measured values as given in patent US9809521B2, “Cannabidinoid derivatives” (priority 2011, dated 2017).

Legend:
U251 cells [1] = experiment: Apoptosis (annexin staining, FACS); type: cell-based, human
Procedure: Apoptosis: Cells were grown in 6 well culture dishes and were treated with compounds of the disclosure every 24 hours for three days. […] The labeled cells were analyzed by flow cytometry. Cell Flow Cytometry in combination with PI and annexin staining was used to quantify the percentage of cells undergoing apoptosis in control and treatment groups. Percent control was calculated as annexin positive staining in treated cells/control cells×100. PI staining was used to distinguish necrotic cells from those undergoing apoptosis.
(§1) Albeit, the magnitude of these effects was reduced compared to those observed with the combination treatment.
The concentrations of the individual cannabinoids (THC and CBD) were next increased in order to attempt to match levels of apoptosis produced by the combination treatment. The purpose of these experiments was to determine whether the compounds alone recruited similar pathways as compared to the combination of THC and CBD. […] However, THC alone could not produce the level of apoptosis observed with the combination treatment (FIG. 23, panel A and B).

SF126 cells = experiment: MTT cell proliferation assay; conditions: read-out: IC50, SF126; seven day treatment; 95% confidence limits in brackets
U251 cells [2] = experiment: Boyden chamber invasion assay; type: cell-based, human
Excerpt: Boyden chamber U251 cell invasion studies with CBD and/or Δ^9-THC. In addition to uncontrolled cell growth, a hallmark phenotype of aggressive GBM tumor cells is their ability to migrate away for the primary tumor of origin and invade into neighboring CNS tissue.

Id-1 promoter = Id-1 promoter luciferase reporter assay in MDA-MB231 cells; type: cell-based, human; conditions: 1.5 μM, 2 or 3 days
Procedure: Id-1 promoter reporter assays: A SacI-BspHI fragment of 2.2 kb corresponding to the 5′ upstream region of human Id-1 gene and driving a luciferase gene in a PGL-3 vector (Promega) was used (Id-1-sbsluc). Cells were plated in six well dishes in medium supplemented with 10% FBS and 5 μg/ml insulin. After 24 hours, cells were cotransfected with 6 μg of luciferase reporter plasmids and 2 μg of pCMVβ (Clontech) using Superfect reagent (Qiagen). pCMVβ contained bacterial β-galactosidase and served to control for variation in transfection efficiency. 3 hours after transfection, the cells were rinsed twice with PBS and were cultured in the absence or presence of CBD for 48-72 h. Cell pellets were lysed in 80 μl of reporter lysis buffer (Promega) for 10 min at room temperature. Lysed cells were centrifuged and supernatants harvested. Luciferase and β-gal assays were performed using Luciferase Assay System (Promega), β-Gal Assay Kit (Clontech) and a 2010 luminometer (Pharmingen).
Gene Expression Assays looking at Id-1 gene epression with CBD in MDA-MB231 cells. […] Twenty-four hours after transfection, MDA-MB231-Id-1-luc cells were treated with CBD for 2 or 3 days and luciferase activity was measured (FIG. 3, panel B and panel C). […] These findings correlated to the data obtained when the expression of the Id-1 protein was assessed by Western analysis.

U251 cells [3] = experiment: Cell cycle analysis (PI staining, FACS); type: cell-based, human; conditions: THC 1.7 μM, CBD 0.4 μM
Procedure: Cell cycle analysis: U251 cells were grown in Petri dishes (100 mm×15 mm) and received drug treatments for 2 days. On the third day, the cells were harvested and centrifuged at 1200 rpm for 5 minutes. The pellet was washed 1× with PBS+1% BSA, and centrifuged again. The pellet was re-suspended in 0.5 ml of 2% paraformaldehyde (diluted with PBS) and left to fix overnight at room temperature. The next day the cells were pelleted and re-suspended in 0.5 ml 0.3% Triton in PBS and incubated for 5 minutes at room temperature. The cells were then washed 2 times with PBS+1% BSA. The cells were finally suspended in PBS (0.1% BSA) with 10 ug/ml Propidium Iodide and 100 μg/ml RNAse. The cells were incubated for 30 minutes at room temperature before being stored at 4° C. Cell cycle was measured using a FACS Calibur using Cell Quest Pro and Modfit software.
Apoptosis Studies using U251 cells with Δ^9-THC and/or CBD. […] Therefore, U251 cells were treated with THC and CBD alone or with the combination of the two, and cell cycle was analyzed using cell flow cytometery (FIG. 20). […] Additionally, there was an increase in the population of cells in the G2/M phase. These changes in G1, S and G2/M phase are hallmarks of cell cycle arrest.
as §1

ACCM cells = experiment: Lung metastasis after injection of ACCM cells; type: in vivo, mouse; conditions: daily treatment
Procedure: Measuring the effect of CBD on the aggressiveness of head and neck as well as salivary gland cancer cells. Head and neck cancer cell lines (SAS and HSC-2 in the upper panels) and salivary gland cancer cell lines (ACCM and ACC2 in the lower panels) were treated with CBD.

Id-1 [4] = experiment: Quantitative Western analysis of Id-1 expression in U251 cells; type: cell-based, human
Procedure: Quantitative Western analysis of Id-1 expression in U251 cells with or without CBD treatment. To examine whether CBD would downregulate Id-1 protein expression in a GBM based cell line, quantitative Western analysis was performed with U251 cells.

U87 cells = experiment: MTT cell proliferation assay; conditions: Homo sapiens, U-87 MG, 72 h, read-out: CBD IC50, U87
Id-1 [5] = experiment: Immunohistochemical detection of Id-1 in lung metastatic foci; type: in vivo, mouse
Procedure: CBD down-regulates Id-1 expression and breast cancer cell proliferation in lung metastatic foci. […] Lung tissue from mice treated with vehicle or CBD (1 mg/kg) were evaluated for Id-1 expression and Ki67, a marker of cellular proliferation (FIG. 5, panel A).
Immunohistochemical detection of Id-1 and Ki67 was performed in lung tissues of vehicle and CBD treated mice. Nuclei were stained with hematoxylin. […] The intensity of the immunohistochemical (IHC) detection of Id-1 was then graded from 0 to 4.

Id-2 = experiment: Western analysis of Id-2 expression in breast cancer cells; type: cell-based, human; conditions: 1.0 μM, three days
CB2 receptors = CB2 receptors (Homo sapiens, UniProt P34972); experiment: Selectivity screen for CB2 receptors; type: binding
CB2 receptors, sequence (P34972 whole entry): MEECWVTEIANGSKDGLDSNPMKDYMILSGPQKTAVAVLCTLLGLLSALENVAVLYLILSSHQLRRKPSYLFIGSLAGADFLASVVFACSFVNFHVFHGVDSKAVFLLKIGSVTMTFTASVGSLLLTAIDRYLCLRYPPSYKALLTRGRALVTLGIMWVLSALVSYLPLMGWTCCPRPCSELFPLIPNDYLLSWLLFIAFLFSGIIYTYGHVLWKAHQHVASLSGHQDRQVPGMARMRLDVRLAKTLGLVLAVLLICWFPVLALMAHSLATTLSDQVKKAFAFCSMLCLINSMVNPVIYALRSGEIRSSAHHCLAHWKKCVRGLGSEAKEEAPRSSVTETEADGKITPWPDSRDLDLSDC

CB1 receptors = CB1 receptors (Homo sapiens, UniProt P21554); experiment: Affinity for CB1 receptors; type: binding
CB1 receptors, sequence (P21554 whole entry): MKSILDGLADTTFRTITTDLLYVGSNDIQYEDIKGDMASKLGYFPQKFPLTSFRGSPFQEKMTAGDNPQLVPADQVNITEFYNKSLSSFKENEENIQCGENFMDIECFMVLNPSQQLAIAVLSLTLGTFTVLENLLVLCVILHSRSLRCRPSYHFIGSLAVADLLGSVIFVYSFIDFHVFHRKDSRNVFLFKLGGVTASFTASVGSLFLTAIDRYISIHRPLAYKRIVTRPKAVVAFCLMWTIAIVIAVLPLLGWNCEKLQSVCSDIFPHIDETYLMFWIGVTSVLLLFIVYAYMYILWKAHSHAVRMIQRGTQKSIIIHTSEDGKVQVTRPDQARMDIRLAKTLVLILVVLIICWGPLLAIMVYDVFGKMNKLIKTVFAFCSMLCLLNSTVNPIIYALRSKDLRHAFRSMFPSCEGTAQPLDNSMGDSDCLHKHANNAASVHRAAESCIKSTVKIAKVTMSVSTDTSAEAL

[6] = Tetrad assay (psychoactive properties of cannabinoids); conditions: in vivo

Structure (SMILES) | block of apoptosis by CB2 antagonist SR144528 (U251 cells [1]; 0.5 μM SR144528, combination 1.7/0.4 μM, 2.5 μM THC, 2.0 μM CBD) | block of apoptosis by α-tocopherol (U251 cells [1]; 20 μM α-tocopherol, combination 1.7/0.4 μM, 2.5 μM THC, 2.0 μM CBD) | apoptosis (annexin) (U251 cells [1]; THC 1.7 μM, CBD 0.4 μM, three days) | IC50 (SF126 cells) [nM] | invasiveness of U251 cells (U251 cells [2]) | luciferase activity (Id-1 promoter) (Id-1 promoter) | cell cycle phases (U251 cells [3]) | number of lung metastatic foci (ACCM cells) | Id-1 protein expression (Id-1 [4]) | IC50 (U87 cells) [nM] | lung foci strongly positive for Id-1 (Id-1 [5]; 1 mg/kg) [%] | intensity of IHC detection of Id-1, grade 0 to 4, average (Id-1 [5]; mouse, in vivo) | up-regulation of Id-2 expression (Id-2) | selectivity CB2 receptors over CB1 receptors (CB2 receptors) | affinity for CB1 receptors (CB1 receptors) | activity in the tetrad assay [6]
C=C(C)[C@@H]1CCC(C)=C[C@H]1c1c(O)cc(CCCCC)cc1O [CBD, cannabidiol] | no reversal was observed with SR144528 | completely blocked by α-tocopherol | did not produce significant changes in apoptosis | 730 | significantly reduce the invasiveness of U251 cells | significant inhibition of luciferase activity | increases in the population of cells in G1 and G2/M phase and decreases in cells in S phase | significantly reduced upon CBD treatment | concentration-dependent inhibition of Id-1 protein expression | 700 | 5.6 | around 1 | – | – | – | –
CCCCC(C)(C)c1cc(O)c(C2CCC(C3CCCCC3)CC2)c(O)c1 (stereo not shown) [Compound O-1663] | – | – | – | – | – | – | – | – | – | – | – | – | more potent than CBD at up-regulating Id-2 expression | selective for targeting CB2 receptors over CB1 receptors | lower affinity for CB1 receptors in comparison to THC | little activity in the tetrad assay
